Data reported in PubChem BioAssay AID1259407 (Chemical Carcinogenesis Research Information System (CCRIS), 2018).
Activity calls are given as the source filed them. No rule for the calls is given here.

System: CCRIS mutagenicity, Ames/micronucleus/aberration tests
Assay: CCRIS mutagenicity studies
[1] = Test System: AMES SALMONELLA TYPHIMURIUM, Strain/Indicator: TA98, Metabolic Activation: NONE, Method: PREINCUBATION
[2] = Test System: AMES SALMONELLA TYPHIMURIUM, Strain/Indicator: TA98, Metabolic Activation: NONE, Method: STANDARD PLATE
[3] = Test System: AMES SALMONELLA TYPHIMURIUM, Strain/Indicator: TA100, Metabolic Activation: NONE, Method: PREINCUBATION
[4] = Test System: AMES SALMONELLA TYPHIMURIUM, Strain/Indicator: TA100, Metabolic Activation: NONE, Method: STANDARD PLATE

For `Nc1n[nH]c(N)n1`, the mutagenic call (Test System: AMES SALMONELLA TYPHIMURIUM, Strain/Indicator: TA97, Metabolic Activation: NONE, Method: STANDARD PLATE) was “inactive; negative”, the mutagenic call (Test System: AMES SALMONELLA TYPHIMURIUM, Strain/Indicator: TA97, Metabolic Activation: RAT, LIVER, S-9, AROCLOR, Method: STANDARD PLATE) was “inactive; negative” and the mutagenic call (Test System: AMES SALMONELLA TYPHIMURIUM, Strain/Indicator: TA98, Metabolic Activation: HAMSTER, LIVER, S-9, AROCLOR 1254 (10%), Method: PREINCUBATION) was “inactive; negative”. For the same compound, the mutagenic call [1] was “inactive; negative”, the mutagenic call [2] was “inactive; negative” and the mutagenic call (Test System: AMES SALMONELLA TYPHIMURIUM, Strain/Indicator: TA98, Metabolic Activation: RAT, LIVER, S-9, AROCLOR 1254 (10%), Method: PREINCUBATION) was “inactive; negative”. For the same compound, the mutagenic call (Test System: AMES SALMONELLA TYPHIMURIUM, Strain/Indicator: TA98, Metabolic Activation: RAT, LIVER, S-9, AROCLOR, Method: STANDARD PLATE) was “inactive; negative”, the mutagenic call (Test System: AMES SALMONELLA TYPHIMURIUM, Strain/Indicator: TA100, Metabolic Activation: HAMSTER, LIVER, S-9, AROCLOR 1254 (10%), Method: PREINCUBATION) was “inactive; negative” and the mutagenic call [3] was “inactive; negative”. The mutagenic call [4] was “inactive; negative”, the mutagenic call (Test System: AMES SALMONELLA TYPHIMURIUM, Strain/Indicator: TA100, Metabolic Activation: RAT, LIVER, S-9, AROCLOR 1254 (10%), Method: PREINCUBATION) was “inactive; negative” and the mutagenic call (Test System: AMES SALMONELLA TYPHIMURIUM, Strain/Indicator: TA100, Metabolic Activation: RAT, LIVER, S-9, AROCLOR, Method: STANDARD PLATE) was “inactive; negative”. The mutagenic call (Test System: AMES SALMONELLA TYPHIMURIUM, Strain/Indicator: TA102, Metabolic Activation: NONE, Method: STANDARD PLATE) was “active; positive”, the mutagenic call (Test System: AMES SALMONELLA TYPHIMURIUM, Strain/Indicator: TA102, Metabolic Activation: RAT, LIVER, S-9, AROCLOR 1254, Method: STANDARD PLATE) was “active; positive” and the mutagenic call (Test System: AMES SALMONELLA TYPHIMURIUM, Strain/Indicator: TA1535, Metabolic Activation: HAMSTER, LIVER, S-9, AROCLOR 1254 (10%), Method: PREINCUBATION) was “inactive; negative”. For the same compound, the mutagenic call (Test System: AMES SALMONELLA TYPHIMURIUM, Strain/Indicator: TA1535, Metabolic Activation: NONE, Method: PREINCUBATION) was “inactive; negative”, the mutagenic call (Test System: AMES SALMONELLA TYPHIMURIUM, Strain/Indicator: TA1535, Metabolic Activation: NONE, Method: STANDARD PLATE) was “inactive; negative” and the mutagenic call (Test System: AMES SALMONELLA TYPHIMURIUM, Strain/Indicator: TA1535, Metabolic Activation: RAT, LIVER, S-9, AROCLOR 1254 (10%), Method: PREINCUBATION) was “inactive; negative”. For the same compound, the mutagenic call (Test System: AMES SALMONELLA TYPHIMURIUM, Strain/Indicator: TA1535, Metabolic Activation: RAT, LIVER, S-9, AROCLOR, Method: STANDARD PLATE) was “inactive; negative”, the mutagenic call (Test System: AMES SALMONELLA TYPHIMURIUM, Strain/Indicator: TA1537, Metabolic Activation: HAMSTER, LIVER, S-9, AROCLOR 1254 (10%), Method: PREINCUBATION) was “inactive; negative” and the mutagenic call (Test System: AMES SALMONELLA TYPHIMURIUM, Strain/Indicator: TA1537, Metabolic Activation: NONE, Method: PREINCUBATION) was “inactive; negative”. For the same compound, the mutagenic call (Test System: AMES SALMONELLA TYPHIMURIUM, Strain/Indicator: TA1537, Metabolic Activation: RAT, LIVER, S-9, AROCLOR 1254 (10%), Method: PREINCUBATION) was “inactive; negative” and the mutagenic call (Test System: UDS RODENT HEPATOCYTES, Strain/Indicator: THY INCORP (NON-S-PHASE), Metabolic Activation: NONE, Method: AUTORADIOGRAPHY) was “inactive; negative”.
`CC(=O)Nc1ccc(OCC(O)CNC(C)C)cc1` (stereo not given) was tested, and the mutagenic call (Test System: AMES SALMONELLA TYPHIMURIUM, Strain/Indicator: TA98, Metabolic Activation: NONE) was “inactive; negative”, the mutagenic call [2] was “inactive; negative” and the mutagenic call (Test System: AMES SALMONELLA TYPHIMURIUM, Strain/Indicator: TA98, Metabolic Activation: RAT, LIVER, S-9, AROCLOR 1254) was “inactive; negative”. For the same compound, the mutagenic call (Test System: AMES SALMONELLA TYPHIMURIUM, Strain/Indicator: TA98, Metabolic Activation: RAT, LIVER, S-9, AROCLOR 1254, Method: STANDARD PLATE) was “inactive; negative”, the mutagenic call (Test System: AMES SALMONELLA TYPHIMURIUM, Strain/Indicator: TA100, Metabolic Activation: NONE) was “inactive; negative” and the mutagenic call [4] was “inactive; negative”. The mutagenic call (Test System: AMES SALMONELLA TYPHIMURIUM, Strain/Indicator: TA100, Metabolic Activation: RAT, LIVER, S-9, AROCLOR 1254) was “inactive; negative”, the mutagenic call (Test System: AMES SALMONELLA TYPHIMURIUM, Strain/Indicator: TA100, Metabolic Activation: RAT, LIVER, S-9, AROCLOR 1254, Method: STANDARD PLATE) was “inactive; negative” and the mutagenic call (Test System: AMES SALMONELLA TYPHIMURIUM, Strain/Indicator: TA1535, Metabolic Activation: NONE) was “inactive; negative”. For the same compound, the mutagenic call (Test System: AMES SALMONELLA TYPHIMURIUM, Strain/Indicator: TA1535, Metabolic Activation: RAT, LIVER, S-9, AROCLOR 1254) was “inactive; negative”, the mutagenic call (Test System: AMES SALMONELLA TYPHIMURIUM, Strain/Indicator: TA1537, Metabolic Activation: NONE) was “inactive; negative” and the mutagenic call (Test System: AMES SALMONELLA TYPHIMURIUM, Strain/Indicator: TA1537, Metabolic Activation: RAT, LIVER, S-9, AROCLOR 1254) was “inactive; negative”.
For `CC(C)([CH2][Sn]([CH2]C(C)(C)c1ccccc1)([CH2]C(C)(C)c1ccccc1)[O][Sn]([CH2]C(C)(C)c1ccccc1)([CH2]C(C)(C)c1ccccc1)[CH2]C(C)(C)c1ccccc1)c1ccccc1`, the mutagenic call (End Point: In vitro chromosomal aberrations, Test System: Human lymphocytes, Metabolic Activation: None) was “inactive; negative”, the mutagenic call (End Point: In vitro chromosomal aberrations, Test System: Human lymphocytes, Metabolic Activation: Rat, Liver, S-9, Aroclor 1254) was “inactive; negative” and the mutagenic call (End Point: In vivo micronucleus, Test System: Bone marrow polychromatic erythrocytes, Species: Mouse, Strain/Sex: Crl:CD-1(ICR)BR/Male and female, Route: Oral) was “inactive; negative”. For the same compound, the mutagenic call (End Point: UDS, Test System: Rat primary hepatocytes, Metabolic Activation: None, Method: Autoradiography) was “inactive; negative”, the mutagenic call (Test System: Chinese hamster ovary cells, Strain/Indicator: CHO cells (HPRT)/6-Thioguanine, Metabolic Activation: None, Method: Standard plate) was “inactive; negative” and the mutagenic call (Test System: Chinese hamster ovary cells, Strain/Indicator: CHO cells (HPRT)/6-Thioguanine, Metabolic Activation: Rat, Liver, S-9, Aroclor 1254, Method: Standard plate) was “inactive; negative”.
For `Cc1c2cccc(C)c2nc2c1ccc1ccccc12`, the mutagenic call (Test System: AMES SALMONELLA TYPHIMURIUM, Strain/Indicator: TA97A, Metabolic Activation: NONE, Method: PREINCUBATION) was “inactive; negative”, the mutagenic call [1] was “active; positive” and the mutagenic call [3] was “inactive; negative”. For the same compound, the mutagenic call (Test System: AMES SALMONELLA TYPHIMURIUM, Strain/Indicator: TA102, Metabolic Activation: NONE, Method: PREINCUBATION) was “active; positive”.
